Data taken from US20210371413A1, “POLYCYCLIC AMIDES AS CYTOTOXIC AGENTS” (FEMTOGENIX LIMITED, priority 2018, published 2021).
Read-outs that look alike come from different tables or passages of the source.

Columns and labels:
Format in all cases: cell-based
A431 (Skin) = assay: In vitro cytotoxicity, MTT assay, A431; details: Homo sapiens, read-out: Cytotoxicity
Experimental: (§1) The in vitro cytotoxicity of a selection of compounds were evaluated in a panel of cell lines using the standard MTT assay for a 72 hour incubation period (Table 2). Free payloads produced cytotoxicities in the nanomolar range.
(§2) Tumor cell lines were maintained in RPMI1640 medium supplemented with 10% heat-inactivated fetal bovine serum, 2 mM L-glutamine and 1 mM sodium pyruvate. 1800 cells per well were seeded in a volume of 180 μl in a 96-well flat bottom polystyrene plate. The cells were allowed to adhere overnight at 37° C. in a CO2 incubator. Ligands were initially formulated in DMSO, and stocks stored at −80° C. They were then further formulated at lox concentration in RPMI1640 medium. 20 ul of diluted samples were added into each treatment well. On each plate, blank wells with no cells, and untreated wells containing cells, were included. Plates were then cultured at 37° C. in a CO2 incubator for 72 hrs. Cytotoxicity was evaluated using a tetrazolium salt-based assay, the MTT assay. After 72 hours, the supernatant was removed from each well and 200 μl of a sterile filtered 500 μg/ml MTT solution in water added to each well. The plates were then incubated at 37° C. in a CO2 incubator for 4 hrs. The supernatant was then removed and the formazan crystals formed solubilized by adding 150 μl of DMSO to each well. The plate was then read on a plate reader at 540 nm, and percentage cell survival calculated as follows: ((mean absorbance treated wells at concentration x−mean absorbance blank wells)+(mean absorbance untreated wells at concentration x−mean absorbance blank wells))×100. Data were plotted as concentration in nM vs. % cell survival in Microsoft Excel, and IC50 values (concentration where cell survival is reduced by a half) were determined from the graph.

REH (ALL) = assay: In vitro cytotoxicity, MTT assay, REH; details: read-out: Cytotoxicity
Experimental: as §1, §2

U138-MG (Glioblastoma) = assay: In vitro cytotoxicity, MTT assay, U138-MG; details: Homo sapiens, read-out: Cytotoxicity
Experimental: as §1, §2

[1] = A-431, A431 (Skin), MTT, 72 hour incubation
[2] = REH (ALL), MTT, 72 hour incubation
[3] = U138-MG (Glioblastoma), MTT, 72 hour incubation

Structure (SMILES)	IC50 (A431 (Skin); [1])	IC50 (REH (ALL); [2])	IC50 (U138-MG (Glioblastoma); [3])	IC50 (A431 (Skin); A-431, 72 h)	IC50 (REH (ALL); 72 h)	IC50 (U138-MG (Glioblastoma); U138-MG, 72 h)
COC(=O)c1nc2cc(NC(=O)c3nc(NC(=O)CCCOc4cc5c(cc4OC)C(=O)N4CCCC[C@H]4CN5)cn3C)ccc2o1 [Compound 61, Methyl (S)-5-(4-(4-((2-methoxy-12-oxo-5,6,6a,7,8,9,10,12-octahydrobenzo[e]pyrido[1,2-a][1,4]diazepin-3-yl)oxy)butanamido)-1-methyl-1H-imidazole-2-carboxamido)benzo[d]oxazole-2-carboxylate]	> 1000 nM	> 1000 nM	> 1000 nM	–	–	–
COc1cc2c(cc1OCCCC(=O)Nc1cc(C(=O)Nc3ccc(-c4cc(C(=O)Nc5ccccc5)n(C)c4)cc3)n(C)c1)NC[C@@H]1CCCCN1C2=O [Compound 67, (S)-4-(4-((2-Methoxy-12-oxo-5,6,6a,7,8,9,10,12-octahydrobenzo[e]pyrido-[1,2-a][1,4]diazepin-3-yl)oxy)butanamido)-1-methyl-N-(4-(1-methyl-5-(phenylcarbamoyl)-1H-pyrrol-3-yl)phenyl)-1H-pyrrole-2-carboxamide]	–	–	–	25.9 nM	29.4 nM	57.2 nM
COc1cc2c(cc1OCCCC(=O)Nc1cc(C(=O)Nc3ccc(-c4cc(C(=O)Nc5ccc(NC(C)=O)cc5)n(C)c4)cc3)n(C)c1)NC[C@@H]1CCCCN1C2=O [Compound 70, (S)—N-(4-Acetamidophenyl)-4-(4-(4-(4-((2-methoxy-12-oxo-5,6,6a,7,8,9,10, 12-octahydrobenzo[e]pyrido[1,2-a][1,4]diazepin-3-yl)oxy)butanamido)-1-methyl-1H-pyrrole-2-carboxamido)phenyl)-1-methyl-1H-pyrrole-2-carboxamide]	11.3 nM	42.5 nM	93.6 nM	–	–	–
COc1cc2c(cc1OCCCC(=O)Nc1cc(C(=O)Nc3ccc(-c4cc(C(=O)Nc5ccc(N)cc5)n(C)c4)cc3)n(C)c1)NC[C@@H]1Cc3ccccc3N1C2=O [Compound 106, (S)—N-(4-Aminophenyl)-4-(4-(4-(4-((8-methoxy-6-oxo-11,12,12a,13-tetrahydro-6H-benzo[5,6][1,4]diazepino[1,2-a]indol-9-yl)oxy)butanamido)-1-methyl-1H-pyrrole-2-carboxamido)phenyl)-1-methyl-1H-pyrrole-2-carboxamide]	26.7 nM	24 nM	84 nM	–	–	–
COc1cc2c(cc1OCCCC(=O)Nc1cc(C(=O)Nc3ccc(-c4cc(C(=O)Nc5ccc(N)cc5)n(C)c4)cc3)n(C)c1)NC[C@@H]1Cc3ccccc3CN1C2=O [Compound 119, (S)—N-(4-Aminophenyl)-4-(4-(4-(4-((2-methoxy-14-oxo-5,6,6a,7,12,14-hexahydrobenzo[5,6][1,4]diazepino[1,2-b]isoquinolin-3-yl)oxy)butanamido)-1-methyl-1H-pyrrole-2-carboxamido)phenyl)-1-methyl-1H-pyrrole-2-carboxamide]	43.1 nM	173 nM	266 nM	–	–	–
COC(=O)c1cc(-c2ccc(NC(=O)c3cc(NC(=O)CCCOc4cc5c(cc4OC)C(=O)N4Cc6ccccc6C[C@H]4CN5)cn3C)cc2)cn1C [Compound 121, Methyl (S)-4-(4-(4-(4-((2-methoxy-14-oxo-5,6,6a,7,12,14-hexahydrobenzo-[5,6][1,4]diazepino[1,2-b]isoquinolin-3-yl)oxy)butanamido)-1-methyl-1H-pyrrole-2-carboxamido)phenyl)-1-methyl-1H-pyrrole-2-carboxylate]	13.4 nM	11.6 nM	43.8 nM	–	–	–
